The source of these data is ChEMBL document CHEMBL3638446, “Quinoxaline inhibitors of phosphoinositide-3-kinases (PI3Ks)” (2013).

The target of this experiment is Phosphatidylinositol 4,5-bisphosphate 3-kinase catalytic subunit gamma isoform (Homo sapiens, UniProt P48736). As to the kind of experiment: Biological Assay: The assay combines the scintillation proximity assay technology (SPA, Amersham) with the capacity of neomycin (a polycationic antibiotic) to bind phospholipids with high affinity and specificity. The Scintillation Proximity Assay is based on the properties of weakly emitting isotopes (such as 3H, 125I, 33P). Coating SPA beads with neomycin allows the detection of phosphorylated lipid substrates after incubation with recombinant PI3K and radioactive ATP in the same well, by capturing the radioactive phospholipids to the SPA beads through their specific binding to neomycin. For orientation: SPA uses beads or plates that emit light when radiolabelled molecules are held near them.
Sequence of Phosphatidylinositol 4,5-bisphosphate 3-kinase catalytic subunit gamma isoform (P48736 whole entry, canonical isoform): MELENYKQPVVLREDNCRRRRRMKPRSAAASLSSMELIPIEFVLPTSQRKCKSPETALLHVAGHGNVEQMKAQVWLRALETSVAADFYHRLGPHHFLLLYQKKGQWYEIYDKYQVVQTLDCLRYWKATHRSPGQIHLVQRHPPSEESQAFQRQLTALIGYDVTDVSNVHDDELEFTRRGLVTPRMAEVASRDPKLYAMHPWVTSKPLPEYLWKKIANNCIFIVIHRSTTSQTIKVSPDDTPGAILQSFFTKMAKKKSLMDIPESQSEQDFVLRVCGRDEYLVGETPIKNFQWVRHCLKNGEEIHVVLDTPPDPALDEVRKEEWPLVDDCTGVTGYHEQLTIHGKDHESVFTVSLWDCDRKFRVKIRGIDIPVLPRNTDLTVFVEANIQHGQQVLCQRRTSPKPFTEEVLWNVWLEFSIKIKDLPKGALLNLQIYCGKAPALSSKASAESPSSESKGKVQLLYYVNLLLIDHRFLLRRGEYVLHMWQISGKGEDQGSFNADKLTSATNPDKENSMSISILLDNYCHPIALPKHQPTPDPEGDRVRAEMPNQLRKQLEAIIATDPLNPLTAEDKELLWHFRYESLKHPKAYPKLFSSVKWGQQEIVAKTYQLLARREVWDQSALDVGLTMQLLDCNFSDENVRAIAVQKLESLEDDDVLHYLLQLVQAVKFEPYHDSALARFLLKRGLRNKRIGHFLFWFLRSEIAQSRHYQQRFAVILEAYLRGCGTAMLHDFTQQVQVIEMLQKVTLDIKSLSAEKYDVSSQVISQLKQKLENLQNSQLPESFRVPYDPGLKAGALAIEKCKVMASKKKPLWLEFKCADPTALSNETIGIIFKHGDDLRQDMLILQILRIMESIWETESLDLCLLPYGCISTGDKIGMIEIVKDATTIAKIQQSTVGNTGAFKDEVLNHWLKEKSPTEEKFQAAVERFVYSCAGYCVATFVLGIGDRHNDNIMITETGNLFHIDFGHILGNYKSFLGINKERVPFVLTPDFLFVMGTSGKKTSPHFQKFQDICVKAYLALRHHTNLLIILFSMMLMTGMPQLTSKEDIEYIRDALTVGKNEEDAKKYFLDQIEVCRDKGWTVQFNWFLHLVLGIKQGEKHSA

Usually IC50 stands for the point on the concentration scale where inhibition reaches its midpoint.

SMILES strings stand for the structures.

As for `COc1ccc(CC2CCOCC2)c(Nc2nc3ccccc3nc2NS(=O)(=O)c2ccc(CN(C)C)cc2)c1`, the IC50 amounted to 30 nM.
